Assay results published in ChEMBL document CHEMBL4814073, “Ring-opening of five-membered heterocycles conjugated 4-isopropylresorcinol scaffold-based benzamides as HSP90 inhibitors suppressing tumor growth in vitro and in vivo” (Eur J Med Chem, 2021).

Tests used:
Heat shock protein HSP90 = Heat shock protein HSP90 (Homo sapiens, UniProt P07900+P08238); assay: Inhibition of HSP90 in human A549 cells assessed as downregulation of FAK expression incubated for 24 hrs by immunoblot analysis; assay type: cell-based; details: dose microM <=3, time 24.0 hrs
Cytochrome P450 2B6 = biological target: T1, Cytochrome P450 2B6 (Homo sapiens, UniProt P20813); assay: Inhibition of CYP2B6 in human liver microsomes using bupropion as substrate by LC-MS/MS analysis; assay type: ADME
T1 sequence (P20813 whole entry): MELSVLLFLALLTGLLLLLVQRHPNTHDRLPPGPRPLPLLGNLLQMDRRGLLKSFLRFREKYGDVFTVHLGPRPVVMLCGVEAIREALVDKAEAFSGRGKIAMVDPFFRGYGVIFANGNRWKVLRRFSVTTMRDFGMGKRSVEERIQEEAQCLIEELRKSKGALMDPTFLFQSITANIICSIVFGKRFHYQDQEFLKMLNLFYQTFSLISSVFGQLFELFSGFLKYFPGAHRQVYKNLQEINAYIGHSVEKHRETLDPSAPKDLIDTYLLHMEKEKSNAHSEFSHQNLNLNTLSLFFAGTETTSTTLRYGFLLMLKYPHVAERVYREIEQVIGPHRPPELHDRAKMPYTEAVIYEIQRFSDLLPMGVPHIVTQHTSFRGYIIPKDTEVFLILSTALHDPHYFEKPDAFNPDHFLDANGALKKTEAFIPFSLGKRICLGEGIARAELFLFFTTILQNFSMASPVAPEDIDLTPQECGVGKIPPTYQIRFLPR

[1] = AUC (0 to t) in Sprague-Dawley rat at 2 mg/kg, iv measured after 1 hrs by LC-MS/MS analysis; assay type: ADME, organism-based; parameters: route intravenous, time 1 hrs, dose 2 mg/kg; details: in vivo
[2] = Metabolic stability in Beagle dog hepatocytes assessed as half life by LC-MS/MS analysis; assay type: ADME, cell-based, Canis lupus familiaris, Hepatocyte
[3] = Metabolic stability in human hepatocytes assessed as half life by LC-MS/MS analysis; assay type: ADME, cell-based, Hepatocyte
[4] = Metabolic stability in CD1 mouse hepatocytes assessed as Intrinsic clearance by LC-MS/MS analysis; assay type: ADME, cell-based, Hepatocyte
[5] = Hepatic clearance in CD1 mouse by LC-MS/MS analysis; assay type: ADME, tissue-based, Hepatocyte; details: hepatocytes
CYP1A2 = biological target: T2, CYP1A2 (Homo sapiens, UniProt P05177); assay: Inhibition of CYP1A2 in human liver microsomes using phenacetin as substrate at 50 uM by LC-MS/MS analysis; assay type: ADME; details: probe phenacetin
T2 sequence (P05177 whole entry): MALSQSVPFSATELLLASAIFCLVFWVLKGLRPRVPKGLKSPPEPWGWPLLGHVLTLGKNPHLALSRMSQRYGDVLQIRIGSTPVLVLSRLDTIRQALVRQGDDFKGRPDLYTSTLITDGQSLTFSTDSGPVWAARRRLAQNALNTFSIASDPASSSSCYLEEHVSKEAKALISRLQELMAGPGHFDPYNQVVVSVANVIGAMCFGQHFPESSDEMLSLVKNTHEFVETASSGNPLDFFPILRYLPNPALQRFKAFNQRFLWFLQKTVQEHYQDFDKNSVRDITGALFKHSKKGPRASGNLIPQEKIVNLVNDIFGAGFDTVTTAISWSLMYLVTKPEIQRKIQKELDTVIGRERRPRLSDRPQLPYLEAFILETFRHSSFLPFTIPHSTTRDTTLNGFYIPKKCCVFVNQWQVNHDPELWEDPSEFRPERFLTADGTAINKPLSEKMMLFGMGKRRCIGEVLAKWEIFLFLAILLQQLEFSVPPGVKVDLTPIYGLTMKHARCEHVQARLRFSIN

[6] = Toxicity in BALB/c mouse xenografted with human H1975 cells assessed as reduction in body weight at 25 to 50 mg/kg, po treated daily relative to control; details: in vivo
A549 [7] = assay: Antitumor activity against human A549 cells xenografted in BALB/c mouse assessed as tumor growth delay at 50 mg/kg, po treated daily relative to control
A549 [8] = assay: Antitumor activity against human A549 cells xenografted in BALB/c mouse assessed as tumor growth delay at 25 mg/kg, po treated daily relative to control
A549 [9] = assay: Antitumor activity against human A549 cells xenografted in BALB/c mouse assessed as tumor growth inhibition at 25 mg/kg, po treated daily relative to control; details: read-out: TGI

CCN(C(=O)c1cc(C(C)C)c(O)cc1O)c1cccnc1
inhibition (Heat shock protein HSP90): Dose-Dependent Effect
IC50 (Cytochrome P450 2B6): 37.2 µM
AUCt [1]: 487 ng·h/mL
half-life [2]: 39.2 min
half-life [3]: 67.6 min
CLint [4]: 3080 mL/min/kg
CLhep predicted [5]: 87.5 mL/min/kg
inhibition at 50 µM (CYP1A2): 50.6%
Activity [6]: Non-Toxic
Activity (A549 [7]): 72%
Activity (A549 [8]): 41%
inhibition in vivo at 25 mg/kg (A549 [9]): 46.7%
